Results on six compounds are retold here after PubChem BioAssay (NCI).

Values joined by “and” are separate entries in the source; they are usually repeats but may differ in a detail not shown here. Equal entries are not always repeated.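 Interpolation was linear, between the two tested concentrations surrounding the appropriate level; five concentrations were tested over 48 hours in 96-well plates. At the GI50, growth is halved. At the TGI there is no net growth.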

Some test systems named below: HS 578T breast; MALME-3M melanoma; OVCAR-3 ovarian; MOLT-4 leukemia; SF-295 CNS; HOP-92 NSCLC; T-47D breast; SK-MEL-2 melanoma; NCI-H522 lung; SK-MEL-28 melanoma.
Holding throughout (assay): NCI-60 cell line screen, 48 h

For `CC(C)(C#N)c1cc(F)cc(C(=O)Nc2cc(Nc3ncccc3-c3ncnc4nc[nH]c34)ccc2F)c1`, the GI50 in the test on HS 578T breast is 1.41 µM; in the test on MALME-3M melanoma it was 0.0236 µM; with OVCAR-3 ovarian, 5.5 µM; in the test with MOLT-4 leukemia it was 4.27 µM; in the test with SF-295 CNS, 3.74 µM; with HOP-92 NSCLC, 0.137 µM. Besides, the GI50 in the test on T-47D breast is 2.9 µM; in the test with SK-MEL-2 melanoma, 0.144 µM; in the test on NCI-H522 lung, 2.66 µM; in the test on SK-MEL-28 melanoma it was 0.0746 µM. Further, the TGI was more than 10 µM in the test on HS 578T breast; 0.074 µM with MALME-3M melanoma; more than 10 µM with OVCAR-3 ovarian; more than 10 µM with MOLT-4 leukemia; more than 10 µM in the test with SF-295 CNS; 0.842 µM in the test with HOP-92 NSCLC. For the same compound, the TGI in the test with T-47D breast is more than 10 µM; in the test on SK-MEL-2 melanoma, 1.17 µM; in the test on NCI-H522 lung, more than 10 µM; in the test with SK-MEL-28 melanoma, more than 10 µM.
In the case of `O=S(=O)(O)c1ccc(-c2nnc(-c3ccccn3)nc2-c2ccc(S(=O)(=O)O)o2)o1`, the TGI with HS 578T breast, in the test on MALME-3M melanoma, in the test with OVCAR-3 ovarian, in the test on MOLT-4 leukemia, with SF-295 CNS and in the test on HOP-92 NSCLC was more than 100 µM throughout. Also, the TGI in the test with T-47D breast, with SK-MEL-2 melanoma, in the test on NCI-H522 lung and in the test with SK-MEL-28 melanoma was more than 100 µM throughout.
Take `O=C(Nc1ccc(Cl)cc1F)c1cc(I)ccc1O`: the GI50 in the test on HS 578T breast was 1.14 µM; with MALME-3M melanoma, 0.608 µM; with OVCAR-3 ovarian, 1.66 µM; in the test on MOLT-4 leukemia it was 2.41 µM; in the test on SF-295 CNS it was 1.89 µM; with HOP-92 NSCLC, 0.171 µM. The GI50 is 1.44 µM with T-47D breast, 0.836 µM in the test with SK-MEL-2 melanoma, 1.14 µM in the test on NCI-H522 lung and 0.487 µM in the test on SK-MEL-28 melanoma. For the same compound, the TGI in the test on HS 578T breast worked out at 7.29 µM; with MALME-3M melanoma, 3.87 µM; with OVCAR-3 ovarian it was 16.1 µM; in the test on MOLT-4 leukemia it was 6.89 µM; with SF-295 CNS, 3.75 µM; in the test on HOP-92 NSCLC it was 0.679 µM. The TGI in the test with T-47D breast is 6.3 µM; with SK-MEL-2 melanoma it was 4.25 µM; with NCI-H522 lung, 10.5 µM; with SK-MEL-28 melanoma it was 3.38 µM.
Regarding `O=C([O][Hg][CH2]C1COC([CH2][Hg][O]C(=O)c2ccccc2)CO1)c1ccccc1` (stereo not given), the GI50 was 21.8 µM with HS 578T breast; 2.06 µM and 1.7 µM with MALME-3M melanoma; 7.93 µM with OVCAR-3 ovarian; 2.18 µM and 1.41 µM with MOLT-4 leukemia; 19.2 µM and 17.8 µM with SF-295 CNS; 1.87 µM and 1.94 µM in the test with HOP-92 NSCLC. Moreover, the GI50 in the test with T-47D breast was 1.88 µM and 1.7 µM; in the test with SK-MEL-2 melanoma, 12.8 µM and 1.84 µM; with NCI-H522 lung it was 1.47 µM and 1.14 µM; in the test with SK-MEL-28 melanoma it was 15.9 µM and 1.75 µM. The TGI in the test with HS 578T breast was 82.6 µM; in the test with MALME-3M melanoma, 3.81 µM and 3.23 µM; in the test with OVCAR-3 ovarian, 21.9 µM; with MOLT-4 leukemia, 6.5 µM and 6.83 µM; in the test with SF-295 CNS it was 41.7 µM and 31.6 µM; in the test with HOP-92 NSCLC, 4.16 µM and 3.37 µM. Also, the TGI in the test with T-47D breast is 4.06 µM and 4.17 µM; in the test on SK-MEL-2 melanoma, 25.7 µM and 3.75 µM; with NCI-H522 lung it was 3.78 µM and 4.64 µM; in the test on SK-MEL-28 melanoma it was 29.5 µM and 3.19 µM.
Turning to `O=C(CN1CCN(c2ccc(Cl)cc2)CC1)N1CCN(c2nnc(-c3ccc(Cl)cc3)c(-c3ccc(Cl)cc3)n2)CC1`, the GI50 with HS 578T breast is 24 µM; with MALME-3M melanoma, 39.9 µM; in the test on OVCAR-3 ovarian, 48.3 µM; in the test with MOLT-4 leukemia it was 5.92 µM; in the test with SF-295 CNS it was 20.9 µM; in the test with HOP-92 NSCLC, 22.4 µM. The GI50 with T-47D breast is 10.8 µM; in the test on SK-MEL-2 melanoma, 51.5 µM; in the test on NCI-H522 lung it was 18.2 µM; in the test with SK-MEL-28 melanoma, more than 100 µM. The TGI is more than 100 µM in the test on HS 578T breast; more than 100 µM in the test with MALME-3M melanoma; more than 100 µM with OVCAR-3 ovarian; more than 100 µM in the test on MOLT-4 leukemia; more than 100 µM in the test on SF-295 CNS; 60.4 µM with HOP-92 NSCLC. Also, the TGI with T-47D breast is more than 100 µM; with SK-MEL-2 melanoma, more than 100 µM; with NCI-H522 lung, 46.9 µM; in the test with SK-MEL-28 melanoma, more than 100 µM.
On to `O=C(c1ccco1)c1nc2cc(F)ccc2[n+]([O-])c1C(F)(F)F`, for which the GI50 in the test on HS 578T breast is 97.4 µM; in the test on MALME-3M melanoma it was 17.4 µM; in the test on OVCAR-3 ovarian it was 20.8 µM; in the test with MOLT-4 leukemia, 24.8 µM; in the test with SF-295 CNS, 51.8 µM; with HOP-92 NSCLC, 22.6 µM. For the same compound, the GI50 in the test with T-47D breast is 30.6 µM; with SK-MEL-2 melanoma it was 20.8 µM; with NCI-H522 lung, 14.7 µM; in the test with SK-MEL-28 melanoma it was 29.4 µM. In addition, the TGI in the test on HS 578T breast is more than 100 µM; with MALME-3M melanoma, 33.9 µM; with OVCAR-3 ovarian, 46.7 µM; in the test on MOLT-4 leukemia, 66.3 µM; with SF-295 CNS, more than 100 µM; with HOP-92 NSCLC, 58.7 µM. Also, the TGI is more than 100 µM in the test on T-47D breast, 50.3 µM in the test on SK-MEL-2 melanoma, 32.2 µM in the test on NCI-H522 lung and 95.4 µM in the test with SK-MEL-28 melanoma.
